Assay results: patent US20120045500A1, “NOVEL DIOXO-IMIDAZOLIDINE DERIVATIVES, WHICH INHIBIT THE ENZYME SOAT-1, AND PHARMACEUTICAL AND COSMETIC COMPOSITIONS CONTAINING THEM” (GALDERMA RESEARCH & DEVELOPMENT, priority 2009, published 2012)

Molecular target: T1, enzyme ACAT-1 (Homo sapiens, UniProt P35610)
T1 construct: endogenous in cells; host or cells: HepG2
T1 sequence (P35610 1-550): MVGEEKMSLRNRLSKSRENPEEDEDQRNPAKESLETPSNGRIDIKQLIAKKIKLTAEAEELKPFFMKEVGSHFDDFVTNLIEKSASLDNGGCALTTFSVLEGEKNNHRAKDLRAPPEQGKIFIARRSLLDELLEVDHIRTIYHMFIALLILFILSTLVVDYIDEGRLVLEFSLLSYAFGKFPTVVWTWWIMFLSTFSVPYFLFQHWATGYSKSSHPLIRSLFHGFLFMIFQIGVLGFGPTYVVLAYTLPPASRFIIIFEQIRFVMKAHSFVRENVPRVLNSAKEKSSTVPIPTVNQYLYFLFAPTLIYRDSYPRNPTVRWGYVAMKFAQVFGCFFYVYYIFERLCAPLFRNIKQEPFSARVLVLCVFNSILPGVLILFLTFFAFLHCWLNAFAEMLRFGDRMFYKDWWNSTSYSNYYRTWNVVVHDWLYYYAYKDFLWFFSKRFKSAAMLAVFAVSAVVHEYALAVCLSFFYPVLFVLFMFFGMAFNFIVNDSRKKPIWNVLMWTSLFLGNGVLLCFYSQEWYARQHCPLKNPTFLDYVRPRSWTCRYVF
Assay: HepG2 NBD-cholesterol fluorescence test for inhibitory activity towards the enzyme ACAT-1 (SOAT-1)
Assay type: cell-based
Conditions: not given
Procedure: The compounds (I) according to the invention, and also the pharmaceutically acceptable salts, solvates and/or hydrates thereof, have inhibitory properties on the enzyme SOAT-1. This inhibitory activity on the enzyme SOAT-1 is measured according to a HepG2 primary enzymatic test, as described in Example 15.
The compounds of formula (I) according to the invention were subjected to a test for evaluating their inhibitory activity towards the enzyme ACAT-1, inspired by the following publication: “Identification of ACAT1- and ACAT2-specific inhibitors using a novel, cell based fluorescence assay: individual ACAT uniqueness”, J. Lipid. Res. (2004) vol. 45, pages 378-386.
The principle of this test is based on the use of NBD-cholesterol, a cholesterol analogue whose fluorescence depends on its environment. When this molecule is in a polar environment, it is weakly fluorescent, whereas in a non-polar environment, it is strongly fluorescent. Free NBD-cholesterol becomes inserted in cell membranes and is weakly fluorescent in this polar environment. When NBD-cholesterol is esterified with ACAT, the NBD-cholesterol ester enters non-polar lipid droplets and is then strongly fluorescent.
The method below is applied: HepG2 cells are incubated in the presence of NBD-cholesterol (1 μg/ml) and of the test compound of formula (I) in black transparent-bottomed 96-well plates, at a rate of 30 000 cells per well. After incubation for 6 hours at 37° C. under 5% CO2, the medium is removed by turning upside-down and the cells are washed with twice 100 μl of PBS. After addition of 50 μl of lysis buffer (10 mM NaPO4, 1% Igepal), the plates are shaken for 5 minutes and the fluorescence is read (excitation at 490 nm, emission at 540 nm) on a Fusion machine (Perkin-Elmer).

SMILES	IC50 [nM]
CC(=O)N1CCC2(CC1)C(=O)N(CC(=O)Nc1c(C(C)C)cccc1C(C)C)C(=O)N2c1ccc(C)cc1 [Compound 1, 2-(8-acetyl-2,4-dioxo-1-p-tolyl-1,3,8-triazaspiro[4.5]dec-3-yl)-N-(2,6-diisopropylphenyl)acetamide]	1600
Cc1ccc(N2C(=O)N(CC(=O)Nc3c(C(C)C)cccc3C(C)C)C(=O)C23CCN(C(=O)OC(C)(C)C)CC3)cc1 [Compound 2, 3-[(2,6-diisopropylphenylcarbamoyl)methyl]-2,4-dioxo-1-p-tolyl-1,3,8-triazaspiro[4.5]decane-8-carboxylic acid tert-butyl ester]	29
Cc1ccc(N2C(=O)N(CC(=O)Nc3c(C(C)C)cccc3C(C)C)C(=O)C23CCN(C(=O)c2ccccc2)CC3)cc1 [Compound 3, 2-(8-benzoyl-2,4-dioxo-1-p-tolyl-1,3,8-triazaspiro[4.5]dec-3-yl)-N-(2,6-diisopropylphenyl)acetamide]	86
Cc1ccc(N2C(=O)N(CC(=O)Nc3c(C(C)C)cccc3C(C)C)C(=O)C23CCN(Cc2ccccc2)CC3)cc1 [Compound 4, 2-(8-benzyl-2,4-dioxo-1-p-tolyl-1,3,8-triazaspiro[4.5]dec-3-yl)-N-(2,6-diisopropylphenyl)acetamide]	5.8
Cc1ccc(N2C(=O)N(CC(=O)Nc3c(C(C)C)cccc3C(C)C)C(=O)C23CCN(C)CC3)cc1 [Compound 5, N-(2,6-diisopropylphenyl)-2-(8-methyl-2,4-dioxo-1-p-tolyl-1,3,8-triazaspiro[4.5]dec-3-yl)acetamide]	20

Same assay, conditions: HepG2 cells, NBD-cholesterol 1 μg/ml, incubation 6 hours at 37° C., fluorescence read (490/540 nm); read-out: IC50

SMILES	IC50 [nM]
Cc1ccc(N2C(=O)N(CC(=O)Nc3c(C(C)C)cccc3C(C)C)C(=O)C23CCC(O)CC3)cc1 (stereo not drawn) [Compound 6, N-(2,6-Diisopropylphenyl)-2-(8-hydroxy-2,4-dioxo-1-p-tolyl-1,3-diazaspiro[4.5]dec-3-yl)acetamide]	6.4
Cc1ccc(N2C(=O)N(CC(=O)Nc3c(C(C)C)cccc3C(C)C)C(=O)C23CCSCC3)cc1 [Compound 7, N-(2,6-diisopropylphenyl)-2-(2,4-dioxo-1-p-tolyl-8-thia-1,3-diazaspiro[4.5]dec-3-yl)acetamide]	1.8
Cc1ccc(N2C(=O)N(CC(=O)Nc3c(C(C)C)cccc3C(C)C)C(=O)C23CCC(F)(F)CC3)cc1 [Compound 8, 2-(8,8-difluoro-2,4-dioxo-1-p-tolyl-1,3-diazaspiro[4.5]dec-3-yl)-N-(2,6-diisopropylphenyl)acetamide]	1.5
Cc1ccc(N2C(=O)N(CC(=O)Nc3c(C(C)C)cccc3C(C)C)C(=O)C23CCOCC3)cc1 [Compound 9, N-(2,6-diisopropylphenyl)-2-(2,4-dioxo-1-p-tolyl-8-oxa-1,3-diazaspiro[4.5]dec-3-yl)acetamide]	0.4
CCc1cccc(CC)c1NC(=O)CN1C(=O)N(c2ccc(C)cc2)C2(CCOCC2)C1=O [Compound 11, N-(2,6-diethylphenyl)-2-(2,4-dioxo-1-p-tolyl-8-oxa-1,3-diazaspiro[4.5]dec-3-yl)acetamide]	9.4

Test system: not given
Assay: not given
Conditions: not given

SMILES	melting point [°C]
CC(=O)N1CCC2(CC1)C(=O)N(CC(=O)Nc1c(C(C)C)cccc1C(C)C)C(=O)N2c1ccc(C)cc1 [Compound 1, 2-(8-acetyl-2,4-dioxo-1-p-tolyl-1,3,8-triazaspiro[4.5]dec-3-yl)-N-(2,6-diisopropylphenyl)acetamide]	136 to 138
Cc1ccc(N2C(=O)N(CC(=O)Nc3c(C(C)C)cccc3C(C)C)C(=O)C23CCC(O)CC3)cc1 (stereo not drawn) [Compound 6, N-(2,6-Diisopropylphenyl)-2-(8-hydroxy-2,4-dioxo-1-p-tolyl-1,3-diazaspiro[4.5]dec-3-yl)acetamide]	142 to 144
